In US20210219549A1 (priority 2018, published 2021):
Where two headings read alike, the source gives them in different places.

Tests used:
[1] = system: Xylella fastidiosa strain Temecula-1 (PDT); assay: microbe, parasite or virus in culture; format: cell-based; settings: for inhibition at 25 µM / inhibition at 50 µM: Xylella fastidiosa; for inhibition at 50 µM: 48 h, read-out: growth inhibition of Temecula1, 50 μM, 48 hrs, relative to untreated control; for inhibition at 25 µM / inhibition: 25 uM
[2] = system: X. fastidiosa Temecula 1 in V. vinifera cv. Carignane; format: in vivo, Vitis vinifera; settings: for leaves with PD symptoms: at the end of 3 months, untreated nearly 100%; for progression of PD symptoms: in vivo
[3] = system: grapevine leaves (V. vinifera cv. Carignane); assay: Leaf disc phytotoxicity, chlorophyll loss
[4] = system: Xf PD strain in V. vinifera grapevines; parameters: species or system Vitis vinifera; settings: in vivo
grapevines = assay: Visible phytotoxicity in greenhouse after foliar spray or soil drench
[5] = system: Ca. Liberibacter asiaticus (Las); format: in vivo, C. paradisi; settings: soil drench 15 g/tree, grapefruits, as early as 20 days post treatment
[6] = system: Ca. Liberibacter asiaticus (Las); format: in vivo, C. sinensis; settings: soil drench 1 g/tree, Hamlins, as early as 20 days post treatment
[7] = system: grapevine leaves (V. vinifera cv. Carignane)

SMILES: CC1=CC(=O)c2ccccc2C1=O [menadione, 2-methyl-1,4-naphthoquinone]
- inhibition at 25 µM [1]: 100%
- inhibition at 50 µM [1]: > 90%
- leaves with PD symptoms [2]: ~50%
- progression of PD symptoms [2]: significantly reduced as well as delayed progression of PD symptoms
- loss in total chlorophyll content ([3]; grapevine leaf discs, within 48 hours, all concentrations tested (as low as 25 mM), vs water-treated control): ~40%
- control of the progression of PD in field conditions [4]: Effective
- visible phytotoxicity (grapevines; foliar sprays): sporadic patches of purple pigmentation and necrosis
- visible phytotoxicity (grapevines; soil drench): not evident
- Las metabolic activity (peroxidase gene expression relative to EF1 alpha) [5]: measureable suppression of Las metabolic activity
- Las metabolic activity (peroxidase gene expression relative to EF1 alpha) [6]: measureable suppression of Las metabolic activity

SMILES: CC(C)(C)CC(C)(C)c1ccc(OCCOCC[N+](C)(C)Cc2ccccc2)cc1 [Benzethonium chloride]
- leaves with PD symptoms [2]: ~50%
- progression of PD symptoms [2]: significantly reduced as well as delayed progression of PD symptoms
- phytotoxicity in the chlorophyll degradation assay ([3]; 25 mM): no appreciable phytotoxicity
- visible phytotoxicity (grapevines; foliar sprays): not evident
- visible phytotoxicity (grapevines; soil drench): not evident
- loss in chlorophyll content [7]: increasingly significant loss in chlorophyll content

SMILES: Cc1cc2nc3c(=O)[nH]c(=O)nc-3n(C[C@H](O)[C@H](O)[C@H](O)CO)c2cc1N(C)C [roseoflavin]
- inhibition [1]: 100%

SMILES: CC(Cc1ccc(O)c(O)c1)C(C)Cc1ccc(O)c(O)c1 (centres unmarked) [4,4′-(2,3 dimethyltetramethylene) dipyrocatechol]
- inhibition at 25 µM [1]: 100%
- inhibition at 50 µM [1]: > 90%

SMILES: Cc1nccc2c(C)c3[nH]c4ccccc4c3cc12 [olivacine]
- inhibition [1]: 100%

SMILES: CC(=O)Oc1ccccc1C(=O)Nc1ncc([N+](=O)[O-])s1 [Nitazoxanide]
- inhibition at 25 µM [1]: 100%

SMILES: COc1ccc2[nH]c3c(C)c4ccncc4c(C)c3c2c1 [9-methoxyellipticine]
- inhibition [1]: 100%

SMILES: Cc1cc2c(C(C)C)c(O)c(O)c(C=O)c2c(O)c1-c1c(C)cc2c(C(C)C)c(O)c(O)c(C=O)c2c1O [gossypol]
- inhibition at 50 µM [1]: > 90%
